Patent publication US20240309015A1, “Methods for the Treatment of Fibrotic Disease” (SHY Therapeutics, LLC, priority 2021, published 2024)

Assays:
[1] = tested on: KRas wild type; experiment: Ras GTP Binding Domain Inhibition Assay, KRas wild type; details: at 20 μM; for KRas wild type + SOS: % inh.: with SOS; for KRas wild type: % inh.: without SOS
Outline: (§1)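 Compounds were tested at 20 μM final, or as dilution series for IC50, against nickel-plate-captured His-tagged GTPase proteins for 3 h at room temperature. Sos exchange factor could be present for the last hour. Labelled GTP (100 nM Cy3 or Cy5) was then bound for 45 min, wells were washed, and retained fluorescence was measured.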

[2] = tested on: KRas G12D mutant; experiment: Ras GTP Binding Domain Inhibition Assay, KRas G12D mutant; details: at 20 μM; for KRas G12D mutant + SOS: % inh.: with SOS; for KRas G12D mutant: % inh.: without SOS
Outline: as §1

[3] = tested on: KRas G12C mutant; experiment: Ras GTP Binding Domain Inhibition Assay, KRas G12C mutant; details: at 20 μM; for KRas G12C mutant + SOS: % inh.: with SOS; for KRas G12C mutant: % inh.: without SOS
Outline: as §1

[4] = tested on: Rho-A; experiment: Ras GTP Binding Domain Inhibition Assay, Rho-A; details: at 20 μM; for Rho-A: % inh.: without SOS
Outline: as §1

[5] = Assessment of plasma exposure in DBA/2J mice; format: in vivo, mouse; details: Group 4: 100 mg/kg PO, Vehicle 2 (Solubilized Lipid)
[6] = tested on: Smad2 phosphorylation; experiment: Phospho-Smad2 western blot of D2-mdx mouse tissues; format: in vivo; details: 100 mg/kg IP daily for 3 days
Excerpt: (§2) The experiment described herein was designed to monitor the effects of Compound 9 on two biomarkers related to fibrosis in D2-mdx mice. The first biomarker is Smad2 phosphorylation, and the second is the levels of serum albumin in the different muscle tissues. Fibrosis causes disruption of the fine transparent tubular sheath which envelops the fibers of skeletal muscles, this can result in various molecules from the blood and interstitial fluid leaking into myofibres. A classic example is serum albumin, which can be identified in tissue sections and considered to be hallmark of myofibre permeability.
(§3) Experimental Design: Compound 9 was suspended in 0.5% Hydroxypropyl Methylcellulose (HPMC)/0.1% Tween® 80 to a final concentration of 10 mg/mL. […]
(§4) Tissue protein extraction: Frozen tissues were placed on ice in prechilled tubes with 30 μL/mg with of ice-cold RIPA buffer+Halt™ Protease & Phosphatase Inhibitor Cocktail. […] Supernatant was removed and protein concentration determined by BCA assay.
(§5) Western blot protocol: Equal amounts of protein (15-50 μg) were separated by SDS-PAGE and transferred to nitrocellulose membranes (Invitrogen by Thermo Fisher Scientific). […] Membranes were blocked with 10% milk and albumin levels were assessed by incubating overnight at 4° C. with albumin antibody (Cell Signaling Technology #4929). […]

[7] = tested on: serum albumin; experiment: Albumin western blot of D2-mdx mouse tissues; format: in vivo; details: D2-mdx mice, 100 mg/kg IP daily for 3 days
Excerpt: as §2, §3, §4, §5

[8] = Observation for overt toxicity in DBA/2J mice; format: in vivo; details: male DBA/2J mice, single dose, 100 mg/kg IP
Method: Experimental Design: Compound 9 was suspended in 0.5% Hydroxypropyl Methylcellulose (HPMC)/0.1% Tween® 80 to a final concentration of 10 mg/mL. The dosing solutions were prepared prior to the start of the test. Male DBA/2J mice (Jackson Stock No: 000671) were housed in solid bottom cages with standard chow and water ad libitum. Dosing was initiated when animals were 7-8 weeks old. Mice were dosed at a volume of 10 mL/kg by intraperitoneal (IP) injection at 100 mg/kg or vehicle. […] Blood was collected at 15 min, 30 min, 1 h, 2 h, 4 h, 7 h, 16 h, 24 h by cardiac puncture, mixed gently 8 times and put on ice until centrifuged within 30 minutes of collection. The plasma was transferred to a 96-well plate for analysis of test compound levels.

[9] = Observation for overt toxicity in D2-mdx mice; format: in vivo; details: male D2-mdx mice, 100 mg/kg IP daily for 3 days
Method: Experimental Design: Compound 9 was suspended in 0.5% Hydroxypropyl Methylcellulose (HPMC)/0.1% Tween® 80 to a final concentration of 10 mg/mL. The dosing solutions were prepared prior to the start of the test and were stored in the dark and maintained in frozen aliquots. Doses were thawed prior to administration. Male D2-mdx (JAX Stock No: 013141) mice were sourced from The Jackson Laboratory and housed in solid bottom cages with standard chow and water ad libitum. Dosing was initiated when animals were −3 weeks old. Animals were dosed daily by intraperitoneal (IP) injection at 100 mg/kg or vehicle for 3 days. […] Mice were sacrificed by CO2 euthanasia approximately 6 hours after their day 3 dosing. Heart, diaphragm, quadriceps, tibialis anterior (TA) samples were collected at termination on day 3 and snap frozen. These samples were shipped on dry ice for analysis, and were stored at −80° C.

[10] = tested on: Smad2/3 phosphorylation; experiment: Phospho-Smad2/3 Inhibition Assay in PANC-1; format: cell-based; details: Homo sapiens; 10 μM compound, 3 h; TGF-b1 stimulated PANC-1; western blot; read-out: % inh of Smad2/3 phosphorylation in PANC-1
Outline: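 Serum-starved cells (0.5% FBS overnight) pretreated 3 h at 37 °C with compound at 10 μM or serial dilutions for IC50, in 0.3% DMSO. TGF-b1 10 ng/ml stimulation: 1 h for Panc-1 (human), 20 min for C2C12 (mouse). Phospho-Smad2 (Ser465/467) and phospho-Smad3 (Ser423/425) measured by western blot of lysates.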

[11] = tested on: IL-6; experiment: Mouse IL6 Quantification Assay (LPS-stimulated RAW 264.7); format: cell-based; set-up: dose or concentration left out as unconfirmed; details: RAW264.7, ELISA, read-out: IL-6: % inh.
[12] = tested on: TNFα; experiment: Mouse TNF Alpha Quantification Assay (LPS-stimulated RAW 264.7); format: cell-based; set-up: dose or concentration left out as unconfirmed; details: RAW264.7, ELISA, read-out: TNFα: % inh.

Row | SMILES | KRas wild type + SOS: % inh. [1] | KRas wild type: % inh. [1] | KRas G12D mutant + SOS: % inh. ([2]; Table 7) | KRas G12D mutant + SOS: % inh. ([2]; Table 8) | KRas G12D mutant: % inh. ([2]; Table 7) | KRas G12D mutant: % inh. ([2]; Table 8) | KRas G12C mutant + SOS: % inh. [3] | KRas G12C mutant: % inh. [3] | Rho-A + SOS: % inh. ([4]; with SOS) | Rho-A: % inh. [4] | Tmax [5] [h] | Smad2 phosphorylation in the diaphragm compared to control vehicle mice [6] | Smad2 phosphorylation in the heart ([6]; D2-mdx mice) | serum albumin levels in the heart [7] | serum albumin levels in the tibialis anterior and quadricep muscles [7] | findings of overt toxicity [8] | findings of overt toxicity [9] | inhibition at 10 µM [10] [%] | inhibition [11] [%] | inhibition [12] [%]
1 | COCCNc1nc(-c2nccn2C)nc2sc(-c3cccc(OC)c3Cl)c(-c3ccccc3)c12 [Compound 9, 6-(2-Chloro-3-methoxyphenyl)-N-(2-methoxyethyl)-2-(1-methyl-1H-imidazol-2-yl)-5-phenylthieno[2,3-d]pyrimidin-4-amine] | D (D = 76-100% inhibition) | C (C = 46-75% inhibition) | C (C = 46-75% inhibition) | C (C = 46-75% inhibition) | C (C = 46-75% inhibition) | C (C = 46-75% inhibition) | D (D = 76-100% inhibition) | B (B = 26-45% inhibition) | B (B = 26-45% inhibition) | B (B = 26-45% inhibition) | 4 | inhibition of Smad2 phosphorylation | No changes | No changes | clear decrease | No findings of overt toxicity were observed | No findings of overt toxicity were observed | – | – | –
2 | Cc1c(-c2ccn(C(C)C)n2)sc2nc(-c3nccn3C)nc(NCC3CN(C)CCO3)c12 (racemic) [Compound 25, rac-6-(1-Isopropyl-1H-pyrazol-3-yl)-5-methyl-2-(1-methyl-1H-imidazol-2-yl)-N-((4-methylmorpholin-2-yl)methyl)thieno[2,3-d]pyrimidin-4-amine] | D (D = 76-100% inhibition) | D (D = 76-100% inhibition) | D (D = 76-100% inhibition) | D (D = 76-100% inhibition) | D (D = 76-100% inhibition) | D (D = 76-100% inhibition) | D (D = 76-100% inhibition) | D (D = 76-100% inhibition) | – | D (D = 76-100% inhibition) | – | – | – | – | – | – | – | 0 | 76 to 100 | 46 to 75
3 | COCCOc1nc(-c2nccn2C)nc2sc(-c3ccn(C(C)C)n3)c(C)c12 [Compound 30, 6-(1-Isopropyl-1H-pyrazol-3-yl)-4-(2-methoxyethoxy)-5-methyl-2-(1-methyl-1H-imidazol-2-yl)thieno[2,3-d]pyrimidine] | 0 (0 = 0% inhibition) | A (A = 1-25% inhibition) | 0 (0 = 0% inhibition) | 0 (0 = 0% inhibition) | 0 (0 = 0% inhibition) | 0 (0 = 0% inhibition) | 0 (0 = 0% inhibition) | A (A = 1-25% inhibition) | – | 0 (0 = 0% inhibition) | – | – | – | – | – | – | – | 0 | 0 | 0
4 | COCCCOc1nc(-c2nccn2C)nc2sc(-c3ccn(C(C)C)n3)c(-c3ccccc3)c12 [Compound 37, 6-(1-Isopropyl-1H-pyrazol-3-yl)-4-(3-methoxypropoxy)-2-(1-methyl-1H-imidazol-2-yl)-5-phenylthieno[2,3-d]pyrimidine] | A (A = 1-25% inhibition) | 0 (0 = 0% inhibition) | 0 (0 = 0% inhibition) | 0 (0 = 0% inhibition) | 0 (0 = 0% inhibition) | 0 (0 = 0% inhibition) | 0 (0 = 0% inhibition) | 0 (0 = 0% inhibition) | – | 0 (0 = 0% inhibition) | – | – | – | – | – | – | – | 0 | 76 to 100 | 0
